Source: paper PMC9081086, “Stapling strategy enables improvement of antitumor activity and proteolytic stability of host-defense peptide hymenochirin-1B” (RSC Advances, 2018)
Positions of bridges follow the written chain, without caps; N, C: chain ends. Non-standard residues stand in square brackets, D forms with d. Residues, ends and D or L forms follow the SMILES beside them. S5 = C=CCCC[C@](C)(N)C(=O)O

Legend:
[1] = system: human normal kidney cell 293 T; test: MTT toxicity against normal cells, 293T; assay type: cell-based; conditions: 96 h
Description: (§1) Anti-tumor activity was evaluated by the standard MTT assay with a slight modification measuring the median inhibitory concentration (IC50) values.[35] HCT-116 cells, HepG2 cells and A549 cells were plated in triplicate wells into a 96-well plate at 5 × 10^3/well and cultured routinely for 24 h. Cells were incubated with increasing concentrations of hymenochirin-1B and its analogs (0.1–30 μM) and continued to culture with DMEM plus 10% FBS at 37 °C and 5% CO2. After being incubated for 96 h, the absorbance A value was determined by MTT at 540 nm. The untreated HCT-116 cells, HepG2 cells and A549 cells were used as control. Each experiment was performed in duplicate. The inhibitory rate was calculated according to the following formula: inhibitory rate = (a value of the control group − a value of the study group)/a value of the control group × 100%.
(§2) To further research the selectivity of these peptides towards cancer cells over normal cells. The growth-inhibitory activities of peptides were evaluated using the 3-(4,5-dimethylthiazol-2-yl)-2,5-diphenyltetrazolium bromide (MTT) assay against three normal cells,[35] namely, human normal liver cell LO-2, human normal Lung cell BEAS-2 and human normal kidney cell 293 T (Table S2 ^†). The experiments procedure was performed just same as growth inhibition of the peptides against tumor cells. […] It might be due to the higher averaged hydrophobicity produced by six or nine additional methylene and two olefinic carbons to the peptide to increase toxicity to human normal cells. This situation may be resolved through the addition of polar character and glycosylation into the sequence to decrease the averaged hydrophobicity to improve the selectivity of these peptides towards cancer cells over normal cells. These modifications of these peptides are under way, and the present study was focused on the improved anti-tumor activity of template peptide hymenochirin-1B.

[2] = Protease resistance (trypsin degradation, HPLC); assay type: in vitro ADME; conditions: trypsin solution (5 ng/µL), room temperature, HPLC 214 nm, duplicate; for half-life at 0.1 mM: trypsin 5 ng/μL in 50 mM PBS with 2 mM CaCl2, pH 7.4 (method: trypsin buffer pH 8), peptide 0.1 mM final, sampled 0–3.5 h, HCl quench, read-out: half-life (t1/2) toward trypsin degradation (converted)
Description: The peptides were dissolved in PBS buffer solutions (50 mM, pH = 7.4) to a final concentration of 1 mM, respectively. Trypsin was dissolved in PBS buffer (50 mM, containing 2 mM of CaCl2, pH = 8) to a final concentration of 5 ng μL^−1. Then the peptide solutions (100 μL) were incubated with trypsin solution (1 mL) at room temperature. 100 μL of digestion mixture was taken at the 0, 0.5, 1.0, 1.5, 2.0, 2.5, 3.0, and 3.5 h marks, then quenched with 20 μL of hydrochloric acid (1 M). The solution of the trypsin peptide fragments was monitored by HPLC at different time to determine the fraction of protease degradation at 214 nm. Each experiment was performed in duplicate.
To assess the protease stability of the stapled peptides, we measured their susceptibility toward trypsin degradation at room temperature in PBS buffer (pH 7.4) with monitored by HPLC. Trypsin is a protease that predominantly cleaves at the carboxyl terminus of positive charge amino acids, such as arginine and lysine. […] Especially, only about 49% of bicyclic stapled peptide H-10 was cleaved after 3.5 h (Fig. 3 and S4 ^†).
Fig. 3 Proteolytic stability of peptides incubated in trypsin solution (5 ng μL^−1 in 50 mM PBS buffer, pH = 7.4) at a final concentration of 0.1 mM. […] The percent of residual peptide was monitored by Analytic HPLC. All experiments were repeated at least three times. H-0 represents hymenochirin-1B.

[3] = Circular dichroism, α-helicity; assay type: physicochemical; conditions: CD, TFE/water (1:1), 50 μM peptide, 25 °C, 1 mm cuvette, calculated from [θ]222
Description: The linear and stapled peptides were dissolved in the trifluoroethanol (TFE) and water (1 : 1) to a final concentration of 50 μM, respectively. The CD spectra were obtained with 1 mm quartz cuvette on Jasco-815 spectropolarimeter at 25 °C. The measurement parameters were set up as follows: wavelength, 185–260 nm; step resolution, 0.5 nm; speed, 20 nm min^−1. All spectra were converted to a uniform scale of molar ellipticity after background subtraction. The curves were smoothed using standard parameters. The ellipticity in the acquired CD spectra was converted to the molar ellipticity using the equation: [θ] = θ/(10 × c × l), where, [θ] is the Molar ellipticity (deg cm^2. d mol^−1), θ is the observed ellipticity corrected for the buffer at a given wavelength (m deg), c is the molar concentration and l is the path length (cm). The helicity of each peptide was calculated as described in a literature based on the ellipticity of the peptide's spectrum at 222 nm and the number of amino acids in the peptide sequence.
Circular dichroism (CD) spectroscopy was used to investigate the secondary structures of the stapled and template peptides to probe structural changes induced by conformation constraint in a membrane-like milieu, including […] (TFE) and water (1 : 1). […] (Table 1, ESI ^†).

[4] = system: human normal Lung cell BEAS-2; test: MTT toxicity against normal cells, BEAS-2B; assay type: cell-based; conditions: 96 h
Description: as §1, §2

[5] = system: human normal liver cell LO-2; test: MTT toxicity against normal cells, LO-2; assay type: cell-based; conditions: 96 h
Description: as §1, §2

[6] = the molecule shown is the open-chain precursor; 33-membered ring; resin; 60 steps

Row | SMILES | half-life at 0.1 mM [2] | Helicity (%) [3] | metabolised at 3.5 h, 0.1 mM ([2]; trypsin 5 ng/μL in 50 mM PBS, pH 7.4, peptide 0.1 mM final, 3.5 h, read-out: peptide cleaved by trypsin after 3.5 h) | IC50 (μM) 293T, toxicity against normal cells [1] | IC50 (μM) BEAS-2B, toxicity against normal cells [4] | IC50 (μM) LO-2, toxicity against normal cells [5] | ring closure, overall yield [6]
1 | CC[C@H](C)[C@H](N)C(=O)N[C@@H](CCCCN)C(=O)N[C@@H](CC(C)C)C(=O)N[C@@H](CO)C(=O)N1CCC[C@H]1C(=O)N[C@@H](CCC(=O)O)C(=O)N[C@H](C(=O)N[C@@H](CCCCN)C(=O)N[C@@H](CC(=O)O)C(=O)N[C@@H](CC(N)=O)C(=O)N[C@@H](CC(C)C)C(=O)N[C@@H](CCCCN)C(=O)N[C@@H](CCCCN)C(=O)N[C@H](C(=O)N[C@@H](CC(C)C)C(=O)N[C@@H](CCCCN)C(=O)NCC(=O)N[C@@H](C)C(=O)N[C@H](C(=O)N[C@@H](CCCCN)C(=O)NCC(=O)N[C@@H](C)C(=O)N[C@H](C(=O)N[C@@H](C)C(=O)N[C@H](C(=O)N[C@@H](C)C(=O)N[C@@H](CCCCN)C(=O)N[C@@H](CCSC)C(=O)N[C@H](C(N)=O)C(C)C)C(C)C)[C@@H](C)CC)[C@@H](C)CC)C(C)C)[C@@H](C)O [Hymenochirin-1B] (H-IKLSPETKDNLKKVLKGAIKGAIAVAKMV-NH2) | 16.8 min | 48.7% | – | 11.12 ± 0.35 µM | 9.24 ± 0.25 µM | 23.98 ± 0.32 µM | –
2 | C=CCCCCCC[C@@](C)(NC(=O)[C@H](CCCCNC(=O)OC(C)(C)C)NC(=O)[C@H](CC(C)C)NC(=O)[C@@H](NC(=O)[C@H](CCCCNC(=O)OC(C)(C)C)NC(=O)[C@H](CCCCNC(=O)OC(C)(C)C)NC(=O)[C@H](CC(C)C)NC(=O)[C@H](CC(=O)NC(c1ccccc1)(c1ccccc1)c1ccccc1)NC(=O)[C@H](CC(=O)OC(C)(C)C)NC(=O)[C@H](CCCCNC(=O)OC(C)(C)C)NC(=O)[C@@H](NC(=O)[C@H](CCC(=O)OC(C)(C)C)NC(=O)[C@@H]1CCCN1C(=O)[C@H](COC(C)(C)C)NC(=O)[C@H](CC(C)C)NC(=O)[C@H](CCCCNC(=O)OC(C)(C)C)NC(=O)[C@@H](NC(=O)OCC1c2ccccc2-c2ccccc21)[C@@H](C)CC)[C@@H](C)OC(C)(C)C)C(C)C)C(=O)N[C@@H](C)C(=O)N[C@H](C(=O)N[C@@H](CCCCNC(=O)OC(C)(C)C)C(=O)NCC(=O)N[C@@H](C)C(=O)N[C@H](C(=O)N[C@@](C)(CCCC=C)C(=O)N[C@H](C(=O)N[C@@H](C)C(=O)N[C@@H](CCCCNC(=O)OC(C)(C)C)C(=O)N[C@@H](CCSC)C(=O)N[C@H](C(N)=O)C(C)C)C(C)C)[C@@H](C)CC)[C@@H](C)CC | – | – | – | – | – | – | 6.72%

Further lines, with some results ahead:

Row | half-life at 0.1 mM [2] | Helicity (%) [3] | metabolised at 3.5 h, 0.1 mM ([2]; trypsin 5 ng/μL in 50 mM PBS, pH 7.4, peptide 0.1 mM final, 3.5 h, read-out: peptide cleaved by trypsin after 3.5 h) | SMILES | IC50 (μM) 293T, toxicity against normal cells [1] | IC50 (μM) BEAS-2B, toxicity against normal cells [4] | IC50 (μM) LO-2, toxicity against normal cells [5] | ring closure, overall yield [6]
3 | 30 min | 49.3% | – | CC[C@H](C)[C@H](N)C(=O)N[C@@H](CCCCN)C(=O)N[C@@H](CC(C)C)C(=O)N[C@@H](CO)C(=O)N1CCC[C@H]1C(=O)N[C@@]1(C)CCCC=CCCC[C@@](C)(C(=O)N[C@@H](CC(C)C)C(=O)N[C@@H](CCCCN)C(=O)N[C@@H](CCCCN)C(=O)N[C@H](C(=O)N[C@@H](CC(C)C)C(=O)N[C@@H](CCCCN)C(=O)NCC(=O)N[C@@H](C)C(=O)N[C@H](C(=O)N[C@@H](CCCCN)C(=O)NCC(=O)N[C@@H](C)C(=O)N[C@H](C(=O)N[C@@H](C)C(=O)N[C@H](C(=O)N[C@@H](C)C(=O)N[C@@H](CCCCN)C(=O)N[C@@H](CCSC)C(=O)N[C@H](C(N)=O)C(C)C)C(C)C)[C@@H](C)CC)[C@@H](C)CC)C(C)C)NC(=O)[C@H](CC(=O)O)NC(=O)[C@H](CCCCN)NC(=O)[C@H]([C@@H](C)O)NC1=O [H-2] (H-IKLSP[S5]TKD[S5]LKKVLKGAIKGAIAVAKMV-NH2; staple 6-10) | 3.20 ± 0.33 µM | 3.12 ± 0.52 µM | 3.40 ± 0.32 µM | –
4 | – | 73.3% | ~49% | CC[C@H](C)[C@H](N)C(=O)N[C@@H](CCCCN)C(=O)N[C@@H](CC(C)C)C(=O)N[C@@H](CO)C(=O)N1CCC[C@H]1C(=O)N[C@@]1(C)CCCC=CCCC[C@@](C)(C(=O)N[C@@H](CC(C)C)C(=O)N[C@@H](CCCCN)C(=O)N[C@@H](CCCCN)C(=O)N[C@H](C(=O)N[C@@H](CC(C)C)C(=O)N[C@@H](CCCCN)C(=O)NCC(=O)N[C@@]2(C)CCCC=CCCC[C@@](C)(C(=O)N[C@H](C(=O)N[C@@H](C)C(=O)N[C@H](C(=O)N[C@@H](C)C(=O)N[C@@H](CCCCN)C(=O)N[C@@H](CCSC)C(=O)N[C@H](C(N)=O)C(C)C)C(C)C)[C@@H](C)CC)NC(=O)CNC(=O)[C@H](CCCCN)NC(=O)[C@H]([C@@H](C)CC)NC2=O)C(C)C)NC(=O)[C@H](CC(=O)O)NC(=O)[C@H](CCCCN)NC(=O)[C@H]([C@@H](C)O)NC1=O [H-10] (H-IKLSP[S5]TKD[S5]LKKVLKG[S5]IKG[S5]IAVAKMV-NH2; staple 6-10, 18-22) | 10.42 ± 0.25 µM | 5.52 ± 0.42 µM | 8.78 ± 0.32 µM | –
5 | 168 min | 69.2% | – | CC[C@H](C)[C@H](N)C(=O)N[C@@H](CCCCN)C(=O)N[C@@H](CC(C)C)C(=O)N[C@@H](CO)C(=O)N1CCC[C@H]1C(=O)N[C@@H](CCC(=O)O)C(=O)N[C@H](C(=O)N[C@@H](CCCCN)C(=O)N[C@@H](CC(=O)O)C(=O)N[C@@H](CC(N)=O)C(=O)N[C@@H](CC(C)C)C(=O)N[C@@H](CCCCN)C(=O)N[C@@H](CCCCN)C(=O)N[C@H](C(=O)N[C@@H](CC(C)C)C(=O)N[C@@H](CCCCN)C(=O)NCC(=O)N[C@@]1(C)CCCC=CCCC[C@@](C)(C(=O)N[C@H](C(=O)N[C@@H](C)C(=O)N[C@H](C(=O)N[C@@H](C)C(=O)N[C@@H](CCCCN)C(=O)N[C@@H](CCSC)C(=O)N[C@H](C(N)=O)C(C)C)C(C)C)[C@@H](C)CC)NC(=O)CNC(=O)[C@H](CCCCN)NC(=O)[C@H]([C@@H](C)CC)NC1=O)C(C)C)[C@@H](C)O [H-5] (H-IKLSPETKDNLKKVLKG[S5]IKG[S5]IAVAKMV-NH2; staple 18-22) | 4.70 ± 0.32 µM | 5.76 ± 0.32 µM | 3.57 ± 0.52 µM | –
